# Assay results reported in patent US20120142718A1 (priority 2007, published 2012).
# pIC50: −log10 of the molar value. Like-named read-outs stand apart in the source and are kept apart here.
# Experiments:
# [1] = type: physicochemical
# [2] = target: T1, μ-opioid receptor (Homo sapiens, UniProt P35372); test: biochemical; type: binding
# T1 construct: expressed in transfected cells; host or cells: HEK-293 cells
# [3] = male, Sprague-Dawley, rat, in vivo, 20 mg/kg
# T1 sequence (P35372 whole entry): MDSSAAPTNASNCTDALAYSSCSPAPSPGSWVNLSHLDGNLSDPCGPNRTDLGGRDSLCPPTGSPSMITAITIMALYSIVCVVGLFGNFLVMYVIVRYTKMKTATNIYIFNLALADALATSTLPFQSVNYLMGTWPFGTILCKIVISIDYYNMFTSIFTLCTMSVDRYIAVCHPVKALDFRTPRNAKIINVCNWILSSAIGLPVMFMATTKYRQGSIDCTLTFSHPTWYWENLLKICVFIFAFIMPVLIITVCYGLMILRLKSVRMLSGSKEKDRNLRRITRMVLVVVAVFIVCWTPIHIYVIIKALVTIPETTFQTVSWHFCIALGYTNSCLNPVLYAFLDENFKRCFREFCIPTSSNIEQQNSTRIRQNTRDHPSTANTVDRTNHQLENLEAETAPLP
smiles,measurement,setting,value
CN(CCN)C(=O)Oc1ccc(C[N+]2(C)CC[C@]34c5c6ccc(O)c5OC3C(=O)CCC4[C@H]2C6)cc1.Cl.[Cl-] (stereo partly shown) [Compound A],% production of hydromorphone 20 hrs,[1]; pH 7.5,70%
same,% production of hydromorphone 20 hrs,[1]; pH 10,100%
CN(CCNC(=O)[C@@H](N)CCCNC(=N)N)C(=O)Oc1ccc(C[N@@+]2(C)CC[C@]34c5c6ccc(O)c5O[C@H]3C(=O)CC[C@H]4[C@H]2C6)cc1 [Example 1],pIC50,[2],6.60
COc1ccc2c3c1O[C@H]1C(=O)CC[C@H]4[C@@H](C2)N(C)CC[C@]314 [Hydrocodone],Cmax HC (ng/ml) following PO dosing,[3],23.6 ng/mL
